Source: publication PMC3725993 (Bioorganic & medicinal chemistry letters, 2013)
Each block holds one compound with its values, some of them ahead of it.

What was measured:
Water solubility = assay type: physicochemical; settings: statement in words
[1] = rats; cited from earlier work
[2] = rat behavioral model; cited from earlier work

water solubility (Water solubility): water-soluble
SMILES: COc1ccc(CC[C@@H]2CC[C@H](CCc3ccc(OC)cc3)N2C[C@@H](O)CO)cc1.Cl [Compound 11d]

SMILES: COc1ccc(CC[C@H]2CCC[C@@H](CCc3ccc(OC)cc3)N2C[C@@H](O)CO)cc1 [Compound 3]
METH self-administration (SA) and reward [1]: blocked | responding for food [1]: no effect

water solubility (Water solubility): water-soluble
SMILES: Cl.OC[C@H](O)CN1[C@H](CCc2ccc(OC(F)F)cc2)CC[C@@H]1CCc1ccc(OC(F)F)cc1 [Compound 11f]

SMILES: CN1[C@@H](CC(=O)c2ccccc2)CCC[C@H]1C[C@H](O)c1ccccc1 [(−)-Lobeline]
rewarding effects of methamphetamine [2]: decrease
